Results published in publication PMC8280143, “A novel dephosphorylation targeting chimera selectively promoting tau removal in tauopathies” (Signal Transduction and Targeted Therapy, 2021).
Entries after “also recorded” stand apart in the source; their conditions may differ.

What was measured:
[1] = test system: primary rat hippocampal neurons; experiment: Cell penetrability assessment in cultured primary hippocampal neurons; format: in vitro ADME; details: FITC-labeled DEPTAC 100 μM, 24 h, fixed; laser-scanning microscopy (fluorescence)
Protocol: (§1) Primary hippocampal neurons were prepared from E12–E15 days SD rat embryos. Briefly, pregnant rats were acutely executed, hippocampus was dissected on ice and gently minced in DME/F12 (Hyclone) then suspended in 0.125% (vol/vol) trypsin solution at 37 °C for 20 min. Enzymatic activity was stopped by fetal bovine serum. Neurons were initially kept in 10% FBS-containing DME/F12 for 4–6 h, and subsequently cultured in Neurobasal (Hyclone) with 2% B27, 1% glutamax and 1% penicillin–streptomycin (Thermo Fisher Scientific) in dishes pre-coated with 100 μg/mL poly-D-lysine. Serum was gradually removed by replacing half of the medium for each time within the following 2 days. Especially, to inhibit the proteasome-dependent proteolysis, the cultured hippocampal neurons were treated with 5 μM MG132 for 5 h before harvest.
FITC-labeled DEPTAC (100 μM) was dissolved in sterilized water, and administrated into the medium of cultured primary rat hippocampal neurons for 24 h. Neurons were fixed with 4% paraformaldehyde, co-stained with DAPI (Beyotime), and then washed with PBS for 3 × 5 min. FITC was observed under a laser-scanning microscopy (Zeiss).

endogenous mouse tau = experiment: Hippocampal endogenous mouse tau in NW-administrated Tau368 mice; format: in vivo; details: 30 μg total protein
Protocol: Mice weighting 20–30 g were anesthetized with 1% pentobarbital sodium (35 mg/kg), and fixed in a stereotaxic instrument (RWD). The scalp was sterilized with iodophors and 75% ethanol, and incised along the skull midline. Holes were drilled. Adeno-associated virus or DEPTAC was injected into the dorsal DG (posterior 1.9 mm, lateral ±1.1 mm from the bregma, ventral −2.0 from the skull) or lateral ventricle (posterior 0.22 mm, lateral ±1.0 mm from the bregma, ventral −2.5 from the skull), respectively, using an automatic microinjection system (World Precision Instruments, USA) at a rate of 0.05 μL/min. The needle syringe was left in place for 5 min before withdrawal. The skin was sutured and sterilized with iodophors. Mice were placed on thermos tank for analepsia.
For 2-month male C57BL/6 mice, 10 mM FITC-labeled or unlabeled-DEPTAC were directly injected through the tail vein or lateral ventricle for the evaluation of BBB-penetrability. For 9-month 3×Tg AD mice or Tau368 (20–30 g body weight), unlabeled-DEPTAC (5 mM, 1 μL for each time) was delivered for once into the lateral ventricle through direct stereotaxic injection, or repeatedly administrated through guiding cannulas (RWD, Shenzhen, China) implanted into the lateral ventricle once every 3 days for a consecutive month to test its dephosphorylation efficiency. Mice were restricted in a custom designed device and stayed awake during drug administration, and sacrificed at 24 h post the single or last DEPTAC administration.
(§2) Cultured cells or hippocampus tissues were collected on ice, and homogenized with RIPA lysis buffer containing 50 mM Tris-HCl, 100 mM NaCl, 1% Triton X-100, 5 mM EDTA, and 1:100 PMSF, and then centrifuged at 12,000 × g for 20 min. The supernatant was collected for the analysis of soluble proteins. In some experiments, the pellets were further incubated with 8% SDS buffer at 37 °C and then ultrasound for 60 times to reach a complete resuspension for the analysis of insoluble tau. Protein concentration was measured through BCA assays (Thermo Fisher). Equal amount of protein from each sample were separated in SDS-PAGE gels, and then transferred onto nitrocellulose or 0.22 μm polyvinylidene fluoride membranes (Merck Millipore). The membranes were blocked with 5% BSA, and incubated in turn with primary and horseradish peroxidase-conjugated secondary antibodies: pS199-Tau (44734G, Invitrogen, 1:2000), pT205-Tau (11108-1, Signalway, 1:2000), pS396-Tau (11102, Signalway, 1:2000), pS404-Tau (11112, Signalway, 1:2000), AT8 (MN1020, Thermo Fisher, 1:1000), Tau5 (ab80579, Abcam, 1:1000), Tau46 (T9450, Sigma, 1:1000), PP2A-Bα (4953, Cell signaling, 1:1000), Phospho-Ser/Thr (ab17464, Abcam1:1000), Ubiquitin (ab7254, Abcam, 1:1000), MAP2 (AB5622, Millipore, 1:2000), hTau-N368 (a generous gift from Prof. Keqiang Ye, Emory University School of Medicine, 1:1000), DEPTAC (developed by Daian Biotechnology, Wuhan, China, 1:500), β-actin (ab6276, Abcam, 1:2000). HRP-conjugated goat anti-rabbit IgG (A0208, Beyotime, 1:3000), HRP-conjugated goat anti-mouse IgG (A0216, Beyotime, 1:3000). Blots were visualized using ECL luminol reagent (P0018FS, Beyotime), and quantified using ImageJ software.

Tau368 mice = experiment: Morris water maze test; format: in vivo, mouse
Text: Morris water maze tests began 3 days after the novel-object recognition tests. Briefly, mice were trained to find a hidden platform submerged under water in a Morris water maze (1.2 m in diameter) for five consecutive days with three trials per day. Visual cues outside the pool remained constant. In each trial, mice were pseudorandomly placed, facing the pool wall, in one of the three quadrants without platform and allowed to freely seek the hidden platform within 60 s. […] The traveling path of each mouse was recorded and analyzed online using an MWZ-100 video-tracking system (Techman, China). At day 6, each mouse was tested for 60 s in the water maze with the hidden platform removed. Videos were recorded using recorded and time of mice stayed in, and number of entries into the target quadrant previously place the platform were analyzed using MWZ-100 and ANY-maze video tracking system (Stoelting).

human tau (hTau) = experiment: Western blotting of phospho-tau and total tau in primary neurons with hTau overexpression; format: cell-based
Protocol: Lentivirus LV-EF1α-hTau-GFP (3.50E+8 vg/mL) was packaged by OBiO (Shanghai, China) and used for hTau-overexpression (fused with GFP) in cultured primary rat neurons. AAV-CaMKIIα-Cre (diluted to 5.21E + 07 vg/mL) and AAV-EF1α-DIO-mCherry (3.24E + 12 vg/mL) were obtained from BrainVTA (Wuhan, China) and co-injected (1:1 vol/vol) for sparse labeling of dorsal DG neurons. Doxycycline was purchased from Energy Chemical (Shanghai, China). Rabbit polyclonal DEPTAC antibody was prepared by Daian Biotechnology (Wuhan, China). All other reagents including MG132 were purchased from Sigma-Aldrich (USA), unless otherwise specified.
as §1, §2

[2] = NW Tau368 mice (no dox), n = 3–4
[3] = dox-treated Tau368 mice, day 6, platform removed, *p < 0.05
[4] = primary rat hippocampal neurons, hTau overexpression
[5] = primary rat neurons, lentivirus-mediated hTau overexpression, dose- and time-dependent, *p < 0.01, n = 3

How did the “neuron penetrability in vitro” value [1] turn out when “(1) YQQYQDATADEQG, originates from the porcine β-tubulin 422–434 for recognizing and binding tau proteins.[5],[6] (2) GSGS, a linker for increasing the flexibility of the peptide.[15] (3) KKVAVVRTPPKSP, for recruiting PP2A-Bα,[16] and (4) RRRRRRRR [DEPTAC, DEPhosphorylation TArgeting Chimera; 38 amino acid residues, C185H314N72O56]” was run?
Its value is “high neuron penetrability; also recorded: High cell penetrability”.

And the “endogenous mouse tau phosphorylation at Ser199” value (endogenous mouse tau; [2])?
The value was “limited effect”.

What about the “endogenous mouse tau phosphorylation at Ser396” value (endogenous mouse tau; [2]) of the same substance?
The value was “significantly downregulate”.

And the “endogenous mouse tau phosphorylation at Ser404” value (endogenous mouse tau; [2])?
Its value is “significantly downregulate”.

What about the “endogenous mouse tau phosphorylation at Thr205” value (endogenous mouse tau; [2]) of the same substance?
The value was “significantly downregulate”.

And the “endogenous mouse tau, AT8 epitope” value (endogenous mouse tau; [2])?
The value was “limited effect”.

What about the “endogenous mouse total tau” value (endogenous mouse tau; [2]) of the same substance?
The value was “limited effect”.

What about the “efficiency of DEPTAC on mouse tau” value (endogenous mouse tau; NW Tau368 mice, overall, compared with dox group) of the same substance?
Its value is “relatively limited”.

What about the “spatial learning and memory in control mice” value (Tau368 mice; control mice without human tau accumulation (NW)) of the same substance?
The value was “only limitedly affected; also recorded: did not statistically change”.

What about the “spatial learning deficit in Morris water maze” value (Tau368 mice; dox-treated Tau368 mice, **p < 0.01, *p < 0.05) of the same substance?
The value was “rescued; also recorded: significantly alleviated”.

What about the “spatial memory impairment in Morris water maze” value (Tau368 mice; dox-treated Tau368 mice, day 6, platform removed) of the same substance?
The value was “rescued; also recorded: attenuated”.

And the “number of entries into the target quadrant” value (Tau368 mice; [3])?
The value was “increased”.

What about the “time staying in the target quadrant” value (Tau368 mice; [3]) of the same substance?
Its value is “increased”.

And the “effective concentration of DEPTAC” value (human tau (hTau); discussion, only effective above)?
The value was over 200 µM.

What about the “effective time window post-administration” value (human tau (hTau); discussion, only effective within) of the same substance?
Its value is at most 3 days.

And the “concentration of most significant reduction of phospho-tau” value (human tau (hTau); [4])?
The value was 200 to 300 µM.

What about the “time post administration of most significant reduction of phospho-tau” value (human tau (hTau); [4]) of the same substance?
Its value is at most 3 days.

And the “tau phosphorylation at AT8 (Ser199/Ser202/Thr205) epitope” value (human tau (hTau); [5])?
Its value is “downregulated; also recorded: promoted tau dephosphorylation”.

What about the “tau phosphorylation at pS199” value (human tau (hTau); [5]) of the same substance?
Its value is “downregulated; also recorded: promoted tau dephosphorylation”.

What about the “tau phosphorylation at pS396” value (human tau (hTau); [5]) of the same substance?
The value was “downregulated; also recorded: promoted tau dephosphorylation”.

And the “tau phosphorylation at pS404” value (human tau (hTau); [5])?
The value was “downregulated; also recorded: promoted tau dephosphorylation”.

And the “tau phosphorylation at pT205” value (human tau (hTau); [5])?
Its value is “downregulated; also recorded: promoted tau dephosphorylation”.

What about the “total tau probed by Tau5 antibody” value (human tau (hTau); [5]) of the same substance?
The value was “reduction of total tau; also recorded: reduced total tau”.
